{"source": "paper PMC8618058", "about": "“A Phenylfurocoumarin Derivative Reverses ABCG2-Mediated Multidrug Resistance In Vitro and In Vivo” (International Journal of Molecular Sciences, 2021)", "target": "T1, ABCG2 (Homo sapiens, UniProt Q9UNQ0)", "T1 construct": "total membranes of ABCG2-expressing High Five insect cells", "T1 sequence (Q9UNQ0 1-655)": "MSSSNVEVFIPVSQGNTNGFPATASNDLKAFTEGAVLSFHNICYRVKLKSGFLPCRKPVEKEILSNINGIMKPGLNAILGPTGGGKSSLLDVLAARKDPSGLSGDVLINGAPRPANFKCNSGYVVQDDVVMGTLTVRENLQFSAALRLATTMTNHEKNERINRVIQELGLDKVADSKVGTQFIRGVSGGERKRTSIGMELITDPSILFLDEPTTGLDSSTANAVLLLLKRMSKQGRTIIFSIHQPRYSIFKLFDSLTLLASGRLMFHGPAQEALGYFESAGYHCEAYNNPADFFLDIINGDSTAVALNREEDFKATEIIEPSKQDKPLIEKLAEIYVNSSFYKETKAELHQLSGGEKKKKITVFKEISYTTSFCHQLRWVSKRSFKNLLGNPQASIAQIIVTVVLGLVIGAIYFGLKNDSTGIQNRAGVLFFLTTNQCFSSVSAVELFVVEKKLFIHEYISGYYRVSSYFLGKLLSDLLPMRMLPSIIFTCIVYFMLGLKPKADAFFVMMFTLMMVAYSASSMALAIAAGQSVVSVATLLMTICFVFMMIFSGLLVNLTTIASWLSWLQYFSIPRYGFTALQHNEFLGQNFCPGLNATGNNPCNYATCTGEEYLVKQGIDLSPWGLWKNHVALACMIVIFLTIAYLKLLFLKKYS", "assay": "stimulation of vanadate-sensitive ATPase activity in ABCG2-expressing insect cell membranes; also PhA efflux inhibition in HCT-116/BCRP cells", "assay_type": "biochemical"}
{"smiles": "COc1ccc(-c2c3occc3c(OC[C@H]3OC3(C)C)c3ccc(=O)oc23)cc1OC", "note": "[PFC, (R)-9-(3,4-dimethoxyphenyl)-4-((3,3-dimethyloxiran-2-yl)methoxy)-7H-furo [3,2-g]chromen-7-one]", "values": [{"measurement": "EC50", "value": "3.8 ± 0.64", "unit": "nM"}]}
